Assay results: paper PMC10251674, “Synthesis of novel mono- and bis-pyrazolylthiazole derivatives as anti-liver cancer agents through EGFR/HER2 target inhibition” (BMC Chemistry, 2023)
Like-named read-outs stand apart in the source and are kept apart here.

Tests used:
HepG2 liver cancer cells = experiment: MTT cytotoxicity assay against HepG2 cells; type: cell-based; settings: for IC50 / viability at 100 µM: Homo sapiens; for viability at 100 µM: read-out: cell viability at the highest concentration
Experimental: (§1) HepG2 liver cancer cells and THLE2 normal liver cells were bought from the National Research Institute in Egypt and cultured in “RPMI-1640” media containing L-Glutamine (Lonza Verviers SPRL, Belgium, cat#12-604F). Fetal bovine serum (Sigma-Aldrich, MO, USA) and penicillin–streptomycin at a concentration of 10% and 1%, respectively, were added to both cell lines (Lonza, Belgium). All cells were incubated following routine tissue culture work. Cells were treated with the compounds at (0.01, 0.1, 1, 10, and 100 µM) concentrations. Cell viability was assessed after 48 h using MTT solution (Promega, USA). Finally, Absorbance was subsequently measured (at 570 nm) using ELISA microplate reader (BIO-RAD, model iMark, Japan). The percentage of cell viability was calculated, and IC50 values were recorded using the GraphPad prism 7, as previously reported in the literature.

THLE2 normal liver cells = experiment: MTT cytotoxicity assay against THLE2 cells; type: cell-based; settings: for IC50: Homo sapiens, THLE-2, MTT assay, 48 h, n = 3, read-out: IC50 ± SD THLE2
Experimental: as §1

EGFR kinase = target: T1, EGFR kinase (Homo sapiens, UniProt P00533); experiment: EGFR kinase inhibitory assay (BPS Bioscience kit); type: biochemical; settings: average of three replicates, five concentrations
T1 construct: purchased BPS Bioscience 40321
T1 sequence (P00533 25-1210): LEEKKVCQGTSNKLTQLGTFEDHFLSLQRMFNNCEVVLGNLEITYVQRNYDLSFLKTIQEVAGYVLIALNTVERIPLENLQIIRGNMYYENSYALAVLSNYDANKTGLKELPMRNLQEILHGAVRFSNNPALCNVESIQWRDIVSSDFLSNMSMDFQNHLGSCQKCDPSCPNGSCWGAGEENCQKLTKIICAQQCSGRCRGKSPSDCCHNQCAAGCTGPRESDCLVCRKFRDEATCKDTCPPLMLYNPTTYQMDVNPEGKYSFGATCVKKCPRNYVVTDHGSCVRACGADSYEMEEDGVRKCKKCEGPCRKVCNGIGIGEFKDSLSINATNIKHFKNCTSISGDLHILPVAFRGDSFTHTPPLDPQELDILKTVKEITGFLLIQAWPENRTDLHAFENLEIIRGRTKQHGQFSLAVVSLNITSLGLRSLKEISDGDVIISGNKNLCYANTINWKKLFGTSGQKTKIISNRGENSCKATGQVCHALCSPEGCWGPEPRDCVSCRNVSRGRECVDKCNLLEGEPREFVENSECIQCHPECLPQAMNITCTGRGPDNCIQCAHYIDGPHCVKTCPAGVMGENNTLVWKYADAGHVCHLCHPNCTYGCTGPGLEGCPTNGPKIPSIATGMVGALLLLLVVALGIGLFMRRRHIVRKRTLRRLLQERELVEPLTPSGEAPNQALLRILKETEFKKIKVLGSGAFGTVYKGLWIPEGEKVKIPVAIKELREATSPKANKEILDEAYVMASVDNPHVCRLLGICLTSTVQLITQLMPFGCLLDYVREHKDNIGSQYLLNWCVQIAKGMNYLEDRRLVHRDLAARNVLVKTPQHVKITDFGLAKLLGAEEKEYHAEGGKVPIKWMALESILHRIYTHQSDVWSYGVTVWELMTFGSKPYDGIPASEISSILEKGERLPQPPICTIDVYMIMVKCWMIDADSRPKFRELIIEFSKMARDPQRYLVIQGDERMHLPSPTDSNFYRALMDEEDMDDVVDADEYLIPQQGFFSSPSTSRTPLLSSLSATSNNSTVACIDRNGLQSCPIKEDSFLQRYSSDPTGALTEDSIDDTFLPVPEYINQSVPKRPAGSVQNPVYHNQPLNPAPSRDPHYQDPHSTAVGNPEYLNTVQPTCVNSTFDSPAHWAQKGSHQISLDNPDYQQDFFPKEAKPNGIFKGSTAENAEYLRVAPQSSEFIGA
Experimental: (§2) The autophosphorylation percentage inhibition of compounds was calculated by: 100-[Acontrol/Atreated-Control)] .

HER2 kinase = target: T2, HER2 kinase (Homo sapiens, UniProt P04626); experiment: HER2 kinase inhibitory assay (BPS Bioscience kit); type: biochemical; settings: average of three replicates, five concentrations
T2 construct: purchased BPS Bioscience 40721
T2 sequence (P04626 23-1255): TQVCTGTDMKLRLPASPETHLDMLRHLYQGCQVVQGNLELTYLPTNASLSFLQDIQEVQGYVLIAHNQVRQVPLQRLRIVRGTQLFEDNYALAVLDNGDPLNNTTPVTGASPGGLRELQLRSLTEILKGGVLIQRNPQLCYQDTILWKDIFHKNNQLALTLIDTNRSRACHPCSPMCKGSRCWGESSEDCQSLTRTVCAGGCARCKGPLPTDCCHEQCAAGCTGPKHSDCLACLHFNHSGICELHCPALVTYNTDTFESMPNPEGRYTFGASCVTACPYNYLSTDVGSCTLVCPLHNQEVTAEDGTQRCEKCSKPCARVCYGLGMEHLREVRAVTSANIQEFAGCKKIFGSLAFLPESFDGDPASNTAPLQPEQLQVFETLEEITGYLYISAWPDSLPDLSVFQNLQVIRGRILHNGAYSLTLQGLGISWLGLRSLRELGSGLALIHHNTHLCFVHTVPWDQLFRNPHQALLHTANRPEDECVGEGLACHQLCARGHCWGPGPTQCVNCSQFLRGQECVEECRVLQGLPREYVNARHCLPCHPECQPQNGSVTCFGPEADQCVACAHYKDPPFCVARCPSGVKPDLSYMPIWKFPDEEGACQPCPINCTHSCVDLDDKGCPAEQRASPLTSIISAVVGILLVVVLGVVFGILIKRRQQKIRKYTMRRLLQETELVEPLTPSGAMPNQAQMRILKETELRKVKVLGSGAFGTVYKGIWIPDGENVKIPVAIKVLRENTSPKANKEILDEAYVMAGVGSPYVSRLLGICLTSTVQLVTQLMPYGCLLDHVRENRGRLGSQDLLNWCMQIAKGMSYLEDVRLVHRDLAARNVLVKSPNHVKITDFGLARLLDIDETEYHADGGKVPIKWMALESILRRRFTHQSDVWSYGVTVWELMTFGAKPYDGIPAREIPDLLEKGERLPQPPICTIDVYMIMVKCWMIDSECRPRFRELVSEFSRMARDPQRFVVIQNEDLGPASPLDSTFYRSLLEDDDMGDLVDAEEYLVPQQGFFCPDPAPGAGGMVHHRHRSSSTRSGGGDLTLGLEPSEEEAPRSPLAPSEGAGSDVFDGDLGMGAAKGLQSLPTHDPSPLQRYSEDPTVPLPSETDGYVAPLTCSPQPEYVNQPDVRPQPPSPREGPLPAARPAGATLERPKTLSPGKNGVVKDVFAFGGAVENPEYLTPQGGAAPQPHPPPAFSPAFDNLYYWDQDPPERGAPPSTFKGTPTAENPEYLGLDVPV
Experimental: as §2

HepG2 cells [1] = experiment: Annexin V/PI staining, flow cytometry; type: cell-based; settings: HepG2, treated at IC50, 48 h
Experimental: Overnight, 6-well culture plates were stocked with HepG2 cells (3–5 × 10^5 cells/well). […] After that, the cells and the medium supernatants were separated and washed with ice-cold PBS. The next step was suspending the cells in 100 µL of annexin binding buffer solution "25 mM CaCl2, 1.4 M NaCl, and 0.1 M Hepes/NaOH, pH 7.4″ and incubation with “Annexin V-FITC solution (1:100) and propidium iodide (PI)” at a concentration equals 10 µg/mL in the dark for 30 min. After the cells were stained, they were gathered by Cytoflex FACS equipment. We used cytExpert to examine the data.

caspase-3 = experiment: RT-PCR gene expression of caspase-3; type: cell-based; settings: HepG2, treated at IC50, 48 h, normalised to β-actin, control = 1
Experimental: (§3) Genes of P53, Bax, and Caspases-3,8,9 were screened as proapoptotic genes, while Bcl-2 was screened as antiapoptotic, therefore, we measured their gene expression to investigate the apoptotic process. […] After treatment, RT-PCR reaction was carried out following routine work. The Ct values were then used to determine the fold change in gene expression between samples after normalization to the β-actin reference gene.

caspase-9 = experiment: RT-PCR gene expression of caspase-9; type: cell-based; settings: HepG2, treated at IC50, 48 h, normalised to β-actin, control = 1
Experimental: as §3

Bcl-2 = experiment: RT-PCR gene expression of Bcl-2; type: cell-based; settings: HepG2, treated at IC50, 48 h, normalised to β-actin, control = 1
Experimental: as §3

caspase-8 = experiment: RT-PCR gene expression of caspase-8; type: cell-based; settings: HepG2, treated at IC50, 48 h, normalised to β-actin, control = 1
Experimental: as §3

P53 = experiment: RT-PCR gene expression of P53; type: cell-based; settings: HepG2, treated at IC50, 48 h, normalised to β-actin, control = 1
Experimental: as §3

Bax = experiment: RT-PCR gene expression of Bax; type: cell-based; settings: HepG2, treated at IC50, 48 h, normalised to β-actin, control = 1
Experimental: as §3

HepG2 cells [2] = experiment: Cell cycle analysis by DNA flow cytometry; type: cell-based; settings: HepG2, treated at IC50, 48 h
[3] = HepG2 cells, MTT assay, 48 h, n = 3, read-out: IC50 ± SD HepG2
[4] = HepG2, dose-response curve fit in Fig. 5
[5] = HepG2, dose-response curve fit in Fig. 5, read-out: IC50 (unit inferred)

O=C(c1ccc2ccccc2c1)c1cn(-c2ccccc2)nc1C(=O)CBr [Compound 6, 3-Bromoacetyl-4-(2-naphthoyl)-1-phenyl-1H-pyrazole]
IC50 (HepG2 liver cancer cells; [3]): 16.3 ± 0.29 µM
IC50 (THLE2 normal liver cells): 34.5 ± 1.26 µM

O=C(c1ccc2ccccc2c1)c1cn(-c2ccccc2)nc1-c1csc(NN=Cc2ccccc2)n1 [Compound 8a, 2-(Benzylidenehydrazinyl)-4-(4-(2-naphthoyl)-1-phenyl-pyrazol-3-yl)thiazole]
melting point: 138 to 140 °C
IC50 (HepG2 liver cancer cells; [3]): 8.64 ± 0.29 µM
IC50 (THLE2 normal liver cells): 46.2 ± 2.01 µM

Cc1ccc(C=NNc2nc(-c3nn(-c4ccccc4)cc3C(=O)c3ccc4ccccc4c3)cs2)cc1 [Compound 8b, 2-(4-Methylbenzylidenehydrazinyl)-4-(4-(2-naphthoyl)-1-phenylpyrazol-3-yl)thiazole]
IC50 (HepG2 liver cancer cells; [3]): 8.16 ± 0.34 µM
IC50 (THLE2 normal liver cells): 41.6 ± 1.86 µM

COc1ccc(C=NNc2nc(-c3nn(-c4ccccc4)cc3C(=O)c3ccc4ccccc4c3)cs2)cc1 [Compound 8c, 2-(4-Methoxybenzylidenehydrazinyl)-4-(4-(2-naphthoyl)-1-phenyl-pyrazol-3-yl)thiazole]
IC50 (HepG2 liver cancer cells; [3]): 7.39 ± 0.29 µM
IC50 (THLE2 normal liver cells): ≥ 50 µM

O=C(c1ccc2ccccc2c1)c1cn(-c2ccccc2)nc1-c1csc(NN=Cc2ccc([N+](=O)[O-])cc2)n1 [Compound 8d, 2-(4-Nitrobenzylidenehydrazinyl)-4-(4-(2-naphthoyl)-1-phenyl-pyrazol-3-yl)thiazole]
melting point: 231 to 233 °C
IC50 (HepG2 liver cancer cells; [3]): 11.3 ± 0.34 µM
IC50 (THLE2 normal liver cells): ≥ 50 µM

CC(=NNc1nc(-c2nn(-c3ccccc3)cc2C(=O)c2ccc3ccccc3c2)cs1)c1cc2ccccc2o1 [Compound 12, 2-(2-(1-(Benzofuran-2-yl)ethylidene)hydrazinyl)-4-(4-(2-naphthoyl)-1-phenylpyrazol-3-yl)thiazole]
melting point: 164 to 166 °C
IC50 (HepG2 liver cancer cells; [3]): 5.48 ± 0.66 µM
IC50 (THLE2 normal liver cells): ≥ 50 µM

CC(=NNc1nc(-c2nn(-c3ccccc3)cc2C(=O)c2ccc3ccccc3c2)cs1)c1nc2ccccc2s1 [Compound 13, 2-(2-(1-(Benzothiazol-2-yl)ethylidene)hydrazinyl)-4-(4-(2-naphthoyl)-1-phenylpyrazol-3-yl)-thiazole]
melting point: 143 to 145 °C
IC50 (HepG2 liver cancer cells; [3]): 5.16 ± 0.29 µM
IC50 (THLE2 normal liver cells): ≥ 50 µM

CC(=NNc1nc(-c2nn(-c3ccccc3)cc2C(=O)c2ccc3ccccc3c2)cs1)c1cc2ccccc2oc1=O [Compound 14, 2-(2-(1-(Coumarin-3-yl)ethylidene)hydrazinyl)-4-(4-(2-naphthoyl)-1-phenylpyrazol-3-yl)-thiazole]
melting point: 239 to 241 °C
IC50 (HepG2 liver cancer cells; [3]): 4.36 ± 0.38 µM
IC50 (THLE2 normal liver cells): 39.5 ± 1.74 µM

O=C(c1ccc2ccccc2c1)c1cn(-c2ccccc2)nc1-c1csc(N/N=C/c2ccc(OCCOc3ccc(/C=N/Nc4nc(-c5nn(-c6ccccc6)cc5C(=O)c5ccc6ccccc6c5)cs4)cc3)cc2)n1 [Compound 18a, 1,2-Bis(4-((2-(4-((2-naphthoyl)-1-phenyl-1H-pyrazol-3-yl)thiazol-2-yl)hydrazono)methyl)-phenoxy)ethane]
melting point: 187 to 189 °C
IC50 (HepG2 liver cancer cells; [3]): 8.34 ± 0.48 µM
IC50 (THLE2 normal liver cells): 39.8 ± 1.59 µM

O=C(c1ccc2ccccc2c1)c1cn(-c2ccccc2)nc1-c1csc(N/N=C/c2ccc(OCCCOc3ccc(/C=N/Nc4nc(-c5nn(-c6ccccc6)cc5C(=O)c5ccc6ccccc6c5)cs4)cc3)cc2)n1 [Compound 18b, 1,3-Bis(4-((2-(4-((2-naphthoyl)-1-phenyl-1H-pyrazol-3-yl)thiazol-2-yl)hydrazono)methyl)-phenoxy)propane]
IC50 (EGFR kinase): 0.00704 µM
IC50 (HER2 kinase): 0.0163 µM
melting point: 200 to 202 °C
LogIC50 (HepG2 liver cancer cells; [4]): 0.5536
IC50 (HepG2 liver cancer cells; [5]): 3.58 µM
viability at 100 µM (HepG2 liver cancer cells; HepG2 cells): 9%
IC50 (HepG2 liver cancer cells; [3]): 3.57 ± 0.67 µM
cytotoxicity against THLE2 cells (in words) (THLE2 normal liver cells): safe (non-cytotoxic)
IC50 (THLE2 normal liver cells): ≥ 50 µM

O=C(c1ccc2ccccc2c1)c1cn(-c2ccccc2)nc1-c1csc(N/N=C/c2ccc(OCCCCOc3ccc(/C=N/Nc4nc(-c5nn(-c6ccccc6)cc5C(=O)c5ccc6ccccc6c5)cs4)cc3)cc2)n1 [Compound 18c, 1,4-Bis(4-((2-(4-((2-naphthoyl)-1-phenyl-1H-pyrazol-3-yl)thiazol-2-yl)hydrazono)methyl)-phenoxy)butane]
IC50 (EGFR kinase): 0.00498 µM
increase of death rate (apoptotic cell death) (HepG2 cells [1]; vs. untreated control): 63.6 fold
late apoptosis (HepG2 cells [1]; AV+/PI+): 26.07%
early apoptosis (HepG2 cells [1]; AV+/PI-): 15.28%
total apoptosis (HepG2 cells [1]; untreated control 0.65%): 41.35%
caspase-3 gene expression fold change (caspase-3): 9 fold
caspase-9 gene expression fold change (caspase-9): 7.6 fold
IC50 (HER2 kinase): 0.00985 µM
Bcl-2 gene expression fold change (Bcl-2): 0.34 fold
LogIC50 (HepG2 liver cancer cells; [4]): -0.01146
enhancement in anti-cancer potency on doubling the pharmacophoric scaffold (HepG2 liver cancer cells; HepG2 IC50 of 18c vs. 8c): about eightfold
IC50 (HepG2 liver cancer cells; [5]): 0.974 µM
viability at 100 µM (HepG2 liver cancer cells; HepG2 cells): 5%
IC50 (HepG2 liver cancer cells; [3]): 0.97 ± 0.09 µM
caspase-8 gene expression fold change (caspase-8): 2.3 fold
P53 gene expression fold change (P53): 8.6 fold
Bax gene expression fold change (Bax): 8.9 fold
cell cycle phase at which proliferation is arrested (HepG2 cells [2]): S-phase
cell population at S-phase (HepG2 cells [2]; control 37.8%): 50.5%
cytotoxicity against THLE2 cells (in words) (THLE2 normal liver cells): safe (non-cytotoxic)
IC50 (THLE2 normal liver cells): ≥ 50 µM

O=C(c1ccc2ccccc2c1)c1cn(-c2ccccc2)nc1-c1csc(N/N=C\c2ccccc2OCCOc2ccccc2/C=N\Nc2nc(-c3nn(-c4ccccc4)cc3C(=O)c3ccc4ccccc4c3)cs2)n1 [Compound 21a, 1,2-Bis(2-((2-(4-((2-naphthoyl)-1-phenyl-1H-pyrazol-3-yl)thiazol-2-yl)hydrazono)methyl)-phenoxy)ethane]
IC50 (EGFR kinase): 0.0058 µM
IC50 (HER2 kinase): 0.0142 µM
melting point: 166 to 168 °C
LogIC50 (HepG2 liver cancer cells; [4]): 0.514
IC50 (HepG2 liver cancer cells; [5]): 3.27 µM
viability at 100 µM (HepG2 liver cancer cells; HepG2 cells): 13%
IC50 (HepG2 liver cancer cells; [3]): 3.26 ± 0.14 µM
cytotoxicity against THLE2 cells (in words) (THLE2 normal liver cells): safe (non-cytotoxic)
IC50 (THLE2 normal liver cells): ≥ 50 µM

O=C(c1ccc2ccccc2c1)c1cn(-c2ccccc2)nc1-c1csc(N/N=C\c2ccccc2OCCCOc2ccccc2/C=N\Nc2nc(-c3nn(-c4ccccc4)cc3C(=O)c3ccc4ccccc4c3)cs2)n1 [Compound 21b, 1,3-Bis(2-((2-(4-((2-naphthoyl)-1-phenyl-1H-pyrazol-3-yl)thiazol-2-yl)hydrazono)methyl)-phenoxy)propane]
melting point: 209 to 211 °C
IC50 (HepG2 liver cancer cells; [3]): 9.36 ± 0.47 µM
IC50 (THLE2 normal liver cells): 49.4 ± 2.1 µM

O=C(c1ccc2ccccc2c1)c1cn(-c2ccccc2)nc1-c1csc(N/N=C\c2ccccc2OCCCCOc2ccccc2/C=N\Nc2nc(-c3nn(-c4ccccc4)cc3C(=O)c3ccc4ccccc4c3)cs2)n1 [Compound 21c, 1,4-Bis(2-((2-(4-((2-naphthoyl)-1-phenyl-1H-pyrazol-3-yl)thiazol-2-yl)hydrazono)methyl)-phenoxy)butane]
melting point: 230 to 232 °C
IC50 (HepG2 liver cancer cells; [3]): 4.12 ± 0.19 µM
IC50 (THLE2 normal liver cells): 45.6 ± 1.87 µM

CS(=O)(=O)CCNCc1ccc(-c2ccc3ncnc(Nc4ccc(OCc5cccc(F)c5)c(Cl)c4)c3c2)o1 [Lapatinib, reference compound]
IC50 (HepG2 liver cancer cells; [3]): 7.45 ± 0.32 µM
IC50 (THLE2 normal liver cells): ≥ 50 µM
